{
  "source": "patent US12716889B2",
  "about": "“Microfluidic-based device for in vivo wound infection model and uses thereof” (The Hong Kong Polytechnic University, priority 2021, dated 2026)",
  "system": "P. aeruginosa (PAO1) biofilm",
  "assay": "Viable cell counts (CFU) from biofilm on infected tail wound of Medaka fish in the MicroFish device",
  "type": "in vivo, Pseudomonas aeruginosa",
  "details": "ciprofloxacin monotherapy at 0, 0.05, 1, 5, 10 μg ml^−1 added to fish-microbe co-cultures; FIG. 5E",
  "experimental": "After harvesting the tails from euthanized animals after bacterial infection, the tissues were resuspended in 100 μl sterilized 0.9% (w/v) NaCl saline and ground manually by pellet pestle in 1.5-ml-microcentrifuge tubes (JET BIOFIL, China) until homogenization. The homogenized samples were diluted serially in 0.9% NaCl and then spread on centrimide agar (selective only for Pseudomonad growth) (Sigma-Aldrich, Germany). After incubation at 37° C. for 16 hrs, the colonies grown on the plates were enumerated. The CFU ml^−1 was tabulated by colony number×dilution factor[…]. Experiments were performed in triplicates, and the results are shown as mean±S.D.",
  "data": [
    {"smiles": "O=C(O)c1cn(C2CC2)c2cc(N3CCNCC3)c(F)cc2c1=O", "note": "[ciprofloxacin]", "values": [
      {"measurement": "biofilm viability (viable cell counts, CFU)", "result": "lower biofilm viability"}
    ]}
  ]
}
